Results: patent US20250049939A1, “NOVEL FLT3 ANTIBODIES AND ANTIBODY-DRUG-CONJUGATES BASED THEREON, THERAPEUTIC METHODS AND USES THEREOF IN COMBINATION WITH TYROSINE KINASE INHIBITORS” (TUBULIS GmbH, priority 2021, published 2025)
Square brackets hold non-standard residues; d marks the D form. Peptide text beside a SMILES is read from it. Dolaproine = CO[C@@H]([C@@H]1CCCN1)[C@@H](C)C(=O)O; Dil = CC[C@H](C)[C@H](NC)[C@@H](CC(=O)O)OC; NMeV = CN[C@H](C(=O)O)C(C)C

Legend:
[1] = target: T1, Ba/F3 cells expressing human wildtype FLT3 (Homo sapiens, UniProt P36888); assay: Cytotoxicity in Ba/F3 hFLT3 wt, 72 h; details: Ba/F3 cells expressing the empty vector or human wild type FLT3
T1 sequence (P36888 27-993): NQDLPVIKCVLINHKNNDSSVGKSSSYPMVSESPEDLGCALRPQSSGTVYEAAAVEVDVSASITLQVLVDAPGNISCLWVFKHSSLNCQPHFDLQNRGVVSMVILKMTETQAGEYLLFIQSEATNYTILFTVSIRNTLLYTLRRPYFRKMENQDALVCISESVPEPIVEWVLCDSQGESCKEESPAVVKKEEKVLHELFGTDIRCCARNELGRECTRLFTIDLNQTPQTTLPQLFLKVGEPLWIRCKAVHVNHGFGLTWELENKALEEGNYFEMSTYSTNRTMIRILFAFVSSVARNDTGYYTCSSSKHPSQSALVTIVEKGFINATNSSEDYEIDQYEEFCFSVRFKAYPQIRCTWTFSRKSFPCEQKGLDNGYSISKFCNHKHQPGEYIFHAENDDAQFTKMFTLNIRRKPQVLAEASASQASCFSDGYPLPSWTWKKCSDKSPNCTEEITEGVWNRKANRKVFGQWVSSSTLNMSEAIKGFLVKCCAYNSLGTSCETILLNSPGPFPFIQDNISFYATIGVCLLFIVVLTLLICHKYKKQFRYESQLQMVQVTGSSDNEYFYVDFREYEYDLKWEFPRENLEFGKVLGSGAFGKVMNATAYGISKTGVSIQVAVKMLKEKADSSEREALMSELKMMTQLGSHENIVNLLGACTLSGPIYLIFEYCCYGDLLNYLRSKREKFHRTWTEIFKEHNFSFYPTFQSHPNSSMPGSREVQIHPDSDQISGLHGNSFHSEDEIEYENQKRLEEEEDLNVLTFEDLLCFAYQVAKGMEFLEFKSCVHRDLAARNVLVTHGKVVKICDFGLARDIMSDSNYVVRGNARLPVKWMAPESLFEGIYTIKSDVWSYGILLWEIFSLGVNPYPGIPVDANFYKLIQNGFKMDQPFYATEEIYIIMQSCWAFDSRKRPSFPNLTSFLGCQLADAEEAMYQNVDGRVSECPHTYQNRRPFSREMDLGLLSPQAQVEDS
Protocol: (§1) (A) Schematic process of P5 conjugation technology via disulfite bond reduction and Staudinger induced Michael addition. Final ADC consists of monoclonal antibody (20D9 or IgG1 antibody) coupled to monomethyl-auristatin F toxin. Figure was created with BioRender.com. (B-E,G) Assessment of cytotoxicity of ADCs in different Ba/F3 cell lines. Viability was determined after 72 h treatment with different concentrations by trypan blue exclusion count and compared to untreated control. Mean±s.d. of n=3 biological replicates. […] Calculation based on data from FIGS. 2E and 2G calculated by GraphPad Prism. Unpaired, two-tailed Student's t-test; *p<0.05. Each dot represents a replicate, horizontal line indicates mean.
(§2) AML cells were treated once (d0) and viability was determined after 96h using Resazurin solution (50 µM final concentration, 4 h incubation) (R12204, Thermo Fisher Scientific). For Ba/F3 cell assays, cells were treated once (d0) and viable cells were counted after 72 h on Vi-Cell Cell Viability Analyzer (Beckman Coulter, Krefeld, Germany). Calculation of IC50 values were performed using GraphPad Prism version 6.07 (GraphPad Software, La Jolla, CA, USA).

[2] = tested on: FLT3 cell surface expression in MOLM-13 cells; assay: FLT3 cell surface expression in MOLM-13 after kinase inhibitors, flow cytometry; assay type: cell-based, human; details: 6, 24, 48 and 72 h incubation
Protocol: Cells were analyzed in flow cytometry after treatment. Dotted line represents MFI ratio of untreated cells. Mean±s.d. of n=2 is depicted. […] Grey triangles indicate increasing drug concentrations. […] Mean±standard deviation is depicted.

[3] = tested on: CD34 positive healthy bone marrow (BM) cells; assay: Differentiation assessment of healthy CD34+ cells; details: 1 μg/ml
From the text: (§3) (D) Differentiation assessment after staining to differentiation markers. CMP: common myeloid GMP: progenitors; granulocyte-monocyte progenitors; MEP: megakaryocyte/erythroid progenitors; MLP: multilymphoid progenitors; MPP: multipotent progenitors; hematopoietic stem cells (HSC). (E) Assessment of clonogenic capacity of healthy CD34+ BM cells. […] After 14 days, colonies were counted. GEMM: granulocyte, erythrocyte, macrophage, megakaryocyte. GM: granulocyte, macrophage. M: macrophage. G: granulocyte. E: erythrocyte. BFU-E: burst-forming unit erythrocyte. CFU: colony forming unit. 2way ANOVA; *p<0.05; Mean±s.d. of n=5.

MOLM-13 xenograft = MOLM-13 xenograft in NSG mice, bioluminescence imaging; assay type: in vivo; details: 3 mg/kg; Q1W×2
[4] = tested on: Ba/F3-pMIY-CD64 expressing cells; assay: Cytotoxicity in Ba/F3-pMIY-CD64, 72 h; assay type: cell-based, human
Protocol: as §1, §2

healthy CD34+ BM cells = details: 1 μg/ml
From the text: as §3

[5] = tested on: Ba/F3 cells expressing both FLT3 and CD64; assay: Cytotoxicity in Ba/F3-CD64-FLT3, 72 h; assay type: cell-based, human
Protocol: as §1, §2

[6] = tested on: CD34 positive healthy bone marrow (BM) cells; assay: Viability of healthy CD34+ bone marrow cells, Annexin V/PI, 4 days; details: 1000 ng/ml
From the text: (C) Percentage of living cells measured with Annexin V/PI staining and normalized to PBS.

MOLM-13 cells = assay: Cytotoxicity in MOLM-13, 96 h resazurin; assay type: cell-based, human
From the text: (A) Correlation of MFI of CD64 cell surface expression and MFI of FLT3 cell surface expression of myeloid human cell lines measure in flow cytometry. Expression data presented in Supplementary FIGS. 4A and B. Black line indicates simple linear regression with error interval. r=Pearson correlation coefficient; r^2=Coefficient of determination; p=p value from two tailed test with confidence interval of 95%. MFI=mean fluorescence intensity. (B,C,E,F) Assessment of cytotoxicity of ADCs in different human cell lines. Viability was determined after 96h treatment with different concentrations of ADCs by resazurin fluorescence and normalized to untreated control. Dashed line indicates 100 ng/ml drug concentration. Mean±s.d. of n=3 biological replicates. […] Black line indicates simple linear regression with error interval. (E) Treatment of FLT3 positive human cell lines with IgG1-ADC.

Molecule: CC[C@H](C)[C@@H]([C@@H](CC(=O)N1CCC[C@H]1[C@H](OC)[C@@H](C)C(=O)N[C@@H](Cc1ccccc1)C(=O)O)OC)N(C)C(=O)[C@@H](NC(=O)[C@@H](NC)C(C)C)C(C)C [MMAF, monomethyl auristatin F] (H-[NMeV]V[Dil][Dolaproine]F-OH)
- Cytotoxicity of controls [1]: no difference in cytotoxicity

Molecule: CNC(=O)c1cc(Oc2ccc(NC(=O)Nc3ccc(Cl)c(C(F)(F)F)c3)cc2)ccn1 [Sorafenib]
- FLT3 cell surface expression [2]: increase of FLT3 cell surface expression

Molecule: IgG1-ADC: MMAF conjugated to the IgG1 based antibody palivizumab; CD64 but no FLT3 binding
- Differentiation: cell populations of CD34+ cells [3]: significantly decreased MLPs, CMPs, and GMPs but to a lower extent compared to the 20D9 ADC
- Anti tumor effect, native and deglycosylated ADCs (MOLM-13 xenograft): reduced compared to native 20D9-ADC
- Cytotoxicity of controls [1]: no cytotoxicity
- IC50, Ba/F3-pMIY-CD64 [4]: 31.8 ng/ml
- Clonogenic capacity (CFU) (healthy CD34+ BM cells): significantly reduced granulocytic, monocytic and granulocytic-macrophagic colony formation
- IC50, Ba/F3 expressing both FLT3 and CD64 [5]: 0.0783 µg/mL
- Cell viability of CD34+ cells [6]: significantly decreased cell viability

Molecule: deglycosylated IgG1-ADC: IgG1-ADC with N-linked glycans removed
- Anti tumor effect, native and deglycosylated ADCs (MOLM-13 xenograft): only a minimal effect compared to PBS control mice
- Activity on MOLM-13 cells (MOLM-13 cells): no activity
